# Read-outs that look alike come from different tables or passages of the source.
# How the values were obtained:
# [1] = In Vitro Microsome Stability Assay (rat); format: in vitro ADME
# Method in brief: (§1)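 Species liver microsomes in potassium phosphate buffer were preincubated at 37 °C for 3–5 min with test compound (added from 0.25 mM DMSO stock), then started with NADPH. Samples at 0 and 30 min were quenched with acetonitrile containing internal standard and analysed by LC-MS/MS; % remaining at 30 min used analyte/IS AUC ratios relative to t=0.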
# [2] = In Vitro Microsome Stability Assay (mouse); format: in vitro ADME
# Method in brief: as §1
# [3] = system: full length IL-2 (amino acids 1-153) fused to Gaussia Luciferase; assay: Dox Induced IL2-FL-Gluc Assay; format: cell-based; details: 24 hr, read-out: 24 hr Dox Inducible IL2FLGluc 293FRT/TO: Mean IC50
# Method in brief: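 Compounds in DMSO/media with doxycycline were added to cells plated the previous day and incubated at 37° C, 5% CO2. Cells: stable Flp-In 293 T-REx line, Dox-regulated expression of IL-2 (aa 1-153) fused at its C-terminus to Gaussia luciferase.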
# [4] = system: multiple myeloma cell line NCl-H929; assay: H929 Cell Viability Assay; format: cell-based, human; details: Homo sapiens, NCI-H929, 48 h
# Method in brief: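 Viability was determined by CellTiter-Glo luminescence after a 48 h, 37 °C exposure of NCI-H929 cells to serial compound dilutions in medium containing 10% FBS. Where stereochemistry is not shown, values refer to a mix of stereoisomers.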
# [5] = system: PD1 signal sequence plus 10 amino acids fused to Gaussia Luciferase (PD1-ss+10aa/Gaussia Luciferase); assay: Dox Induced PD1-ss-Gluc Assay; format: cell-based; details: 24 hr, read-out: 24 hr Dox Inducible PD1ssGluc 293FRT/TO: Mean IC50
# Method in brief: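 Compound dilutions in DMSO/media containing doxycycline were applied to a stable, inducible 293 T-REx line carrying the luciferase fusion, then incubated at 37 °C, 5% CO2. Where stereochemistry is not drawn, values relate to isomer mixtures.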
# [6] = system: full length TNFα (amino acids 1-233) fused to Gaussia Luciferase; assay: Dox Induced TNFα-FL-Gluc Assay; format: cell-based; details: 24 hr, read-out: 24 hr Dox Inducible TNFaFLGluc 293FRT/TO: Mean IC50
# Method in brief: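 Compounds diluted in DMSO/medium with doxycycline were incubated at 37° C, 5% CO2 with 293 T-REx cells stably carrying a Tet-regulated TNFα(1-233)-Gaussia luciferase construct. Data for structures drawn without stereochemistry refer to stereoisomer mixtures.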
# [7] = In Vitro Microsome Stability Assay (monkey); format: in vitro ADME
# Method in brief: as §1
# [8] = In Vitro Microsome Stability Assay (human); format: in vitro ADME
# Method in brief: as §1
# [9] = system: multiple myeloma cell line U266B1; assay: U266 Cell Viability Assay; format: cell-based, human; details: Homo sapiens, U-266, 48 hr
# Method in brief: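 Viability was measured by CellTiter-Glo luminescence after 48 h compound exposure at 37° C, 5% CO2. The cells were U266B1 multiple myeloma cells grown in RPMI 1640 plus 10% FBS. Where stereochemistry is not shown, values apply to the stereoisomer mixture.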
# [10] = rat liver microsomes, 30 min w/ NADPH
# [11] = mouse liver microsomes, 30 min w/ NADPH
# [12] = monkey liver microsomes, 30 min w/ NADPH
# [13] = human liver microsomes, 30 min w/ NADPH
# [14] = H929, read-out: 48 hr H929 Viability Celltiter-Glo: Mean EC50
# [15] = U266, read-out: 48 hr U266 Viability Celltiter-Glo: Mean EC50
SMILES,"Liver Microsome Stability-% Left after 30 min w/ NADPH (%) Rat [1, 10] [%]","Liver Microsome Stability-% Left after 30 min w/ NADPH (%) Mouse [2, 11] [%]","IC50 ([3]; Dox inducible, 293FRT/TO cells) [µM]","EC50 ([4]; H929, Celltiter-Glo) [µM]","IC50 ([5]; Dox inducible, 293FRT/TO cells) [µM]","IC50 ([6]; Dox inducible, 293FRT/TO cells) [µM]","Liver Microsome Stability-% Left after 30 min w/ NADPH (%) Monkey [7, 12] [%]","Liver Microsome Stability-% Left after 30 min w/ NADPH (%) Human [8, 13] [%]","EC50 ([9]; U266, Celltiter-Glo) [µM]","Liver Microsome Stability-% Left after 30 min w/ NADPH (%) Rat ([1]; rat, 30 min, NADPH) [%]","Liver Microsome Stability-% Left after 30 min w/ NADPH (%) Mouse ([2]; mouse, 30 min, NADPH) [%]",IC50 ([3]; 293FRT/TO) [µM],"EC50 [4, 14] [µM]",IC50 ([5]; 293FRT/TO) [µM],IC50 ([6]; 293FRT/TO) [µM],"Liver Microsome Stability-% Left after 30 min w/ NADPH (%) Monkey ([7]; monkey, 30 min, NADPH) [%]","Liver Microsome Stability-% Left after 30 min w/ NADPH (%) Human ([8]; human, 30 min, NADPH) [%]","EC50 [9, 15] [µM]"
"C[C@H]1CN(S(=O)(=O)c2ccc(N(C)C)cc2)CCCN(CCC(F)(F)F)CCCN(S(=O)(=O)N2CCc3cc(Cl)ccc3C2)C1 [A165, 4-{[(3S)-5-[(6-chloro-1,2,3,4-tetrahydroisoquinolin-2-yl)sulfonyl]-3-methyl-9-(3,3,3-trifluoropropyl)-1,5,9-triazacyclododecan-1-yl]sulfonyl}-N,N-dimethylaniline]",11.9,14.9,0.294,4.09,0.131,1.86,12.8,2.23,> 25,–,–,–,–,–,–,–,–,–
"Cc1ccc(CN2CCCN(S(=O)(=O)c3ccc(N(C)C)cc3)C[C@H](C)CN(S(=O)(=O)N3CCc4cc(Cl)ccc4C3)CCC2)cc1 [A131, 4-{[(3S)-5-[(6-chloro-1,2,3,4-tetrahydroisoquinolin-2-yl)sulfonyl]-3-methyl-9-[(4-methylphenyl)methyl]-1,5,9-triazacyclododecan-1-yl]sulfonyl}-N,N-dimethylaniline]",73.9,101,0.426,4.74,0.145,2.4,70.2,84.5,> 25,–,–,–,–,–,–,–,–,–
C[C@H]1CN(S(=O)(=O)c2ccc(N(C)C)cc2)CCCN(C(=O)OCc2ccccc2)CCCN(S(=O)(=O)N2CCc3cc(Cl)ccc3C2)C1 [A103],36.5,42.2,0.698,> 25,0.446,> 25,38.5,31.6,> 25,–,–,–,–,–,–,–,–,–
"C[C@H]1CN(S(=O)(=O)Cc2ccccc2)CCCN(CC2CCCCC2)CCCN(S(=O)(=O)N2CCc3cc(Cl)ccc3C2)C1 [A171, 6-chloro-2-{[(3S)-9-(cyclohexylmethyl)-3-methyl-5-phenylmethanesulfonyl-1,5,9-triazacyclododecan-1-yl]sulfonyl}-1,2,3,4-tetrahydroisoquinoline]",0.90,0.91,> 25,> 25,> 25,> 25,0.26,0.60,> 25,–,–,–,–,–,–,–,–,–

# Next, values leading:
"Liver Microsome Stability-% Left after 30 min w/ NADPH (%) Rat [1, 10] [%]","Liver Microsome Stability-% Left after 30 min w/ NADPH (%) Mouse [2, 11] [%]","IC50 ([3]; Dox inducible, 293FRT/TO cells) [µM]","EC50 ([4]; H929, Celltiter-Glo) [µM]","IC50 ([5]; Dox inducible, 293FRT/TO cells) [µM]","IC50 ([6]; Dox inducible, 293FRT/TO cells) [µM]","Liver Microsome Stability-% Left after 30 min w/ NADPH (%) Monkey [7, 12] [%]","Liver Microsome Stability-% Left after 30 min w/ NADPH (%) Human [8, 13] [%]","EC50 ([9]; U266, Celltiter-Glo) [µM]","Liver Microsome Stability-% Left after 30 min w/ NADPH (%) Rat ([1]; rat, 30 min, NADPH) [%]","Liver Microsome Stability-% Left after 30 min w/ NADPH (%) Mouse ([2]; mouse, 30 min, NADPH) [%]",IC50 ([3]; 293FRT/TO) [µM],"EC50 [4, 14] [µM]",IC50 ([5]; 293FRT/TO) [µM],IC50 ([6]; 293FRT/TO) [µM],"Liver Microsome Stability-% Left after 30 min w/ NADPH (%) Monkey ([7]; monkey, 30 min, NADPH) [%]","Liver Microsome Stability-% Left after 30 min w/ NADPH (%) Human ([8]; human, 30 min, NADPH) [%]","EC50 [9, 15] [µM]",SMILES
1.16,0.74,> 25,> 25,4.12,> 25,0.99,2.76,> 25,–,–,–,–,–,–,–,–,–,"C[C@H]1CCN(S(=O)(=O)c2ccc(N(C)C)cc2)CCCN(CC2CCCCC2)CCCN1S(=O)(=O)N1CCc2cc(Cl)ccc2C1 [A147, 4-{[(4 S)-5-[(6-chloro-1,2,3,4-tetrahydroisoquinolin-2-yl)sulfonyl]-9-(cyclohexylmethyl)-4-methyl-1,5,9-triazacyclododecan-1-yl]sulfonyl}-N,N-dimethylaniline]"
–,–,–,–,–,–,–,–,–,43.1,54.2,0.391,6.71,0.198,4.9,46.1,43.9,> 25,"C[C@H]1CN(S(=O)(=O)c2ccc(N(C)C)cc2)CCCN(CC2CCCCC2)CCCN(S(=O)(=O)N2CCN(c3cccc(F)c3)CC2)C1 [A95, 4-{[(3S)-9-(cyclohexylmethyl)-5-{[4-(3-fluorophenyl)piperazin-1-yl]sulfonyl}-3-methyl-1,5,9-triazacyclododecan-1-yl]sulfonyl}-N,N-dimethylaniline]"
51.1,61.3,0.453,> 25,0.153,10.7,46.1,71.8,> 25,–,–,–,–,–,–,–,–,–,"C[C@H]1CN(CC2CCCCC2)C[C@H](C)CN(S(=O)(=O)N2CCc3cc(Cl)ccc3C2)C[C@@H](C)CN(S(=O)(=O)c2ccc(N(C)C)cc2)C1 [A160, 4-{[(3S,7S,11S)-5-[(6-chloro-1,2,3,4-tetrahydroisoquinolin-2-yl]sulfonyl]-9-(cyclohexylmethyl)-3,7,11-trimethyl-1,5,9-triazacyclododecan-1-yl]sulfonyl}-N,N-dimethylaniline]"
29.2,22.8,0.255,> 25,0.135,4.82,25.8,24.0,> 25,–,–,–,–,–,–,–,–,–,"COc1cc(F)ccc1C1CN(S(=O)(=O)N2CCCN(CC3CCCCC3)CCCN(S(=O)(=O)c3ccc(N(C)C)cc3)C[C@H](C)C2)C1 [A178, 4-{[(3S)-9-(cyclohexylmethyl)-5-{[3-(4-fluoro-2-methoxyphenyl)azetidin-1-yl]sulfonyl}-3-methyl-1,5,9-triazacyclododecan-1-yl]sulfonyl}-N,N-dimethylaniline]"
69.6,62.5,0.201,> 25,0.101,6.26,60.3,70.5,> 25,–,–,–,–,–,–,–,–,–,"Cc1cc(F)ccc1N1CCN(S(=O)(=O)N2CCCN(CC3CCCCC3)CCCN(S(=O)(=O)c3ccc(N(C)C)cc3)C[C@H](C)C2)[C@@H](C)C1 [A162, 4-{[(3S)-9-(cyclohexylmethyl)-5-{[(2 S)-4-(4-fluoro-2-methylphenyl)-2-methylpiperazin-1-yl]sulfonyl}-3-methyl-1,5,9-triazacyclododecan-1-yl]sulfonyl}-N,N-dimethylaniline]"
–,–,–,–,–,–,–,–,–,71.4,77.7,0.087,0.726,0.0418,0.566,66.1,71.1,> 25,"Cc1ccccc1N1CCN(S(=O)(=O)N2CCCN(CC3CCCCC3)CCCN(S(=O)(=O)c3ccc(N(C)C)cc3)C[C@H](C)C2)CC1 [A97, 4-{[(3S)-9-(cyclohexylmethyl)-3-methyl-5-{[4-(2-methylphenyl)piperazin-1-yl]sulfonyl}-1,5,9-triazacyclododecan-1-yl]sulfonyl}-N,N-dimethylaniline]"
